Experimental data reported in patent publication US8426447B2, “Spiro-tricyclic ring compounds as beta-secretase modulators and methods of use” (Amgen Inc., priority 2008, dated 2013).

How the values were obtained:
[1] = target: T1, BACE1 (Homo sapiens, UniProt P56817); experiment: In Vitro Enzymatic BACE FRET (Fluorescence Resonance Energy Transfer) Assay; assay type: biochemical; details: read-out: BACE1 FRET assay
Method in brief: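 Fluorescence read-out after Tris addition raises pH to neutrality and ends the reaction. Before that, a peptide substrate carrying fluorophore and quencher across the BACE cleavage site (50 nM) is incubated with enzyme for one hour at pH 4.2 in acetate containing 10% DMSO and sub-micellar genapol.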

[2] = target: T1, BACE1; experiment: In Vitro BACE Cell-based Assay (HEK cell assay): Aβ40 in conditioned medium of cells stably expressing Amyloid Precursor Protein, sandwich ELISA; details: read-out: HEK cell assay
Method in brief: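 HEK cells stably expressing APP were treated 24 h with compound in 10-point dose response starting at 100 or 10 μM (0.1% DMSO). Secreted Aβ40 quantified by sandwich ELISA (pAb40 capture, biotinylated 6E10 detection, europium time-resolved fluorescence), with IC50 derived from percent inhibition versus concentration.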

T1 sequence (P56817 46-501, species assumed): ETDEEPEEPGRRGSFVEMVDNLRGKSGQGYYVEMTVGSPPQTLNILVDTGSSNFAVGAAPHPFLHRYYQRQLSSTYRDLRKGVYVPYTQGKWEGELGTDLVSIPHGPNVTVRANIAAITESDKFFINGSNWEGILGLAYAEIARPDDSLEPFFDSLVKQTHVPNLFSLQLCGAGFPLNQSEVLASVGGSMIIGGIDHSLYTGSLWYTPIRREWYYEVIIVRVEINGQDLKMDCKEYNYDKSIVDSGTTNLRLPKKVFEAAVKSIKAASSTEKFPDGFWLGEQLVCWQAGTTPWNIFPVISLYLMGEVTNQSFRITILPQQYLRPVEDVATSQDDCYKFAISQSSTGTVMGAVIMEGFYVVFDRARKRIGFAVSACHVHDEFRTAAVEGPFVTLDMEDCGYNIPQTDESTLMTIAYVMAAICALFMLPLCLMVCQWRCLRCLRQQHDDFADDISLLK

Q: What does the source list for `CC(C)(C)COc1ccc2c(c1)[C@]1(COC(N)=N1)c1cc(C3=CCCCC3)ccc1O2` [compound 803]?
A: IC50 ([1]; Table IV, class symbols): < 0.1 µM; IC50 ([2]; Table IV, class symbols): 1 to 5 µM

Q: For `CC(C)(C)C#Cc1ccc2c(c1)[C@]1(COC(N)=N1)c1cc(-c3cccnc3)ncc1O2` [compound 824], which IC50 ([1]; Table IV, class symbols) is on record?
A: The IC50 was under 0.1 µM.

Q: What about the IC50 ([2]; Table IV, class symbols) of the same compound?
A: Its IC50 is 0.1 to 1 µM.

Q: What does the source list for `CC(C)(C)C#Cc1ccc2c(n1)[C@]1(COC(N)=N1)c1cc(-c3cccnc3)ccc1O2` [compound 854]?
A: IC50 ([1]; Table IV, class symbols): < 0.1 µM; IC50 ([2]; Table IV, class symbols): < 0.1 µM

Q: Which IC50 [1] does the source give for `CC1(COc2ccc3c(c2)[C@]2(COC(N)=N2)c2cc(-c4ccccc4F)cnc2O3)COC1` [compound 746] here?
A: Its IC50 is under 0.1 µM.

Q: What about the IC50 [2] of the same compound?
A: The IC50 was 0.1 to 1 µM.

Q: With `CC(C)(O)C#Cc1cnc2c(c1)[C@]1(COC(N)=N1)c1cc(-c3ccccc3)ccc1O2` [compound 647] as the compound, how does the IC50 ([1]; Table IV, class symbols) read?
A: The IC50 was under 0.1 µM.

Q: What about the IC50 ([2]; Table IV, class symbols) of the same compound?
A: Its IC50 is under 0.1 µM.

Q: What does the source list for `COc1cncc(-c2ccc3c(c2)[C@@]2(COC(N)=N2)c2cc(C#CC(C)(C)C)cnc2O3)c1` [compound 643]?
A: IC50 ([1]; Table IV, class symbols): < 0.1 µM; IC50 ([2]; Table IV, class symbols): < 0.1 µM

Q: For `CC(C)(C)CCOc1nccc2c1[C@@]1(COC(N)=N1)c1cc(-c3cncnc3)ccc1O2` [compound 985], which IC50 [1] is on record?
A: Its IC50 is 0.1 to 1 µM.

Q: And the IC50 [2]?
A: The IC50 was over 5 µM.

Q: How did the IC50 ([1]; Table III, IC50's in uM ranges) turn out when `CC(C)(O)COc1ccc2c(c1)[C@]1(COC(N)=N1)c1cc(-c3ccc(F)nc3)ccc1O2` [compound 222] was run?
A: The IC50 was under 0.1 µM.

Q: What about the IC50 ([2]; Table III, IC50's in uM ranges) of the same compound?
A: Its IC50 is under 0.1 µM.

Q: Which IC50 ([1]; Table IV, class symbols) does the source give for `CC(C)(C)COc1ccc2c(c1)[C@]1(COC(N)=N1)c1cc(C3CCCCC3)ccc1O2` [compound 802] here?
A: The IC50 was under 0.1 µM.

Q: What about the IC50 ([2]; Table IV, class symbols) of the same compound?
A: Its IC50 is 0.1 to 1 µM.

Q: For `CC(C)(C)C#Cc1ccc2c(c1)[C@]1(COC(N)=N1)c1cc(C#CC(C)(C)C)cnc1O2` [compound 898], which IC50 ([1]; Table IV, class symbols) is on record?
A: The IC50 was 0.1 to 1 µM.

Q: And the IC50 ([2]; Table IV, class symbols)?
A: The IC50 was over 5 µM.

Q: What does the source list for `NC1=N[C@]2(CO1)c1cc(C#CC3CCCCC3)ccc1Oc1ccc(-c3cncnc3)cc12` [compound 138]?
A: IC50 ([1]; Table III, IC50's in uM ranges): < 0.1 µM; IC50 ([2]; Table III, IC50's in uM ranges): 0.1 to 1 µM

Q: `NC1=N[C@]2(CO1)c1cc(-c3ccc(C(F)(F)F)cc3)ccc1Oc1ccc(-c3cncnc3)cc12` [compound 811] was tested. Which IC50 ([1]; Table IV, class symbols) did it give?
A: Its IC50 is under 0.1 µM.

Q: What about the IC50 ([2]; Table IV, class symbols) of the same compound?
A: Its IC50 is 0.1 to 1 µM.

Q: For `CC(C)Cc1cc2c3c(ccc2o1)Oc1ncc(-c2cncnc2)cc1[C@]31COC(N)=N1` [compound 792], which IC50 ([1]; Table IV, class symbols) is on record?
A: The IC50 was 0.1 to 1 µM.

Q: What about the IC50 ([2]; Table IV, class symbols) of the same compound?
A: Its IC50 is 1 to 5 µM.

Q: `CC(C)(C)COc1ccc2c(c1)[C@@]1(COC(N)=N1)c1cc(C(=O)N3CCCC3)ccc1O2` [218a] was tested. Which IC50 ([1]; Table III, IC50's in uM ranges) did it give?
A: Its IC50 is 0.1 to 1 µM.

Q: And the IC50 ([2]; Table III, IC50's in uM ranges)?
A: The IC50 was 1 to 5 µM.

Q: Which IC50 ([1]; Table IV, class symbols) does the source give for `NC1=N[C@]2(CO1)c1ccccc1Oc1ccc(-c3c(F)ccnc3F)cc12` [compound 599] here?
A: The IC50 was 0.1 to 1 µM.

Q: And the IC50 ([2]; Table IV, class symbols)?
A: Its IC50 is 1 to 5 µM.

Q: How did the IC50 [1] turn out when `NC1=N[C@]2(CO1)c1cc(C3=CCOC3)ccc1Oc1ccc(-c3cncnc3)cc12` [compound 448] was run?
A: Its IC50 is under 0.1 µM.

Q: And the IC50 ([2]; HEK cells)?
A: The IC50 was under 0.1 µM.

Q: For `COC(C)(C)COc1ccc2c(c1)[C@]1(COC(N)=N1)c1cc(C#CC3CC3)ccc1O2` [compound 982], which IC50 [1] is on record?
A: The IC50 was under 0.1 µM.

Q: And the IC50 [2]?
A: The IC50 was 0.1 to 1 µM.

Q: Which results are given for `NC1=N[C@@]2(CO1)c1cc(-c3cccnc3)ccc1Oc1c(F)cccc12` [compound 592]?
A: IC50 ([1]; Table IV, class symbols): < 0.1 µM; IC50 ([2]; Table IV, class symbols): 0.1 to 1 µM

Q: How did the IC50 ([1]; Table III, IC50's in uM ranges) turn out when `CC(C)(O)COc1ccc2c(c1)[C@]1(COC(N)=N1)c1cc(-c3cccnc3)ccc1O2` [Example 135, (S)-1-(2-amino-2′-(pyridin-3-yl)-5H-spiro[oxazole-4,9′-xanthene]-7′-yloxy)-2-methylpropan-2-ol] was run?
A: The IC50 was under 0.1 µM.

Q: And the IC50 ([2]; Table III, IC50's in uM ranges)?
A: The IC50 was under 0.1 µM.

Q: With `CC(C)(C)CC(O)c1ccc2c(c1)[C@@]1(COC(N)=N1)c1cc(-c3ccc(F)nc3)ccc1O2` (some centres unmarked) [162b] as the compound, how does the IC50 ([1]; Table III, IC50's in uM ranges) read?
A: The IC50 was 0.1 to 1 µM.

Q: And the IC50 ([2]; Table III, IC50's in uM ranges)?
A: The IC50 was 0.1 to 1 µM.

Q: What does the source list for `CC1(COc2ccc3c(c2)[C@]2(COC(N)=N2)c2cc(-c4cccnc4)cnc2O3)COC1` [compound 165]?
A: IC50 ([1]; Table III, IC50's in uM ranges): < 0.1 µM; IC50 ([2]; Table III, IC50's in uM ranges): < 0.1 µM

Q: What does the source list for `NC1=N[C@]2(CO1)c1ccccc1Oc1ccc(-c3cncc4ccccc34)cc12` [compound 629]?
A: IC50 ([1]; Table IV, class symbols): 1 to 5 µM; IC50 ([2]; Table IV, class symbols): > 5 µM

Q: For `CC(C)NC(=O)c1ccc2c(c1)[C@@]1(COC(N)=N1)c1cc(OCC(C)(C)C)ccc1O2` [compound 703], which IC50 [1] is on record?
A: The IC50 was under 0.1 µM.

Q: And the IC50 [2]?
A: The IC50 was under 0.1 µM.

Q: Which IC50 [1] does the source give for `CC(C)(C)OC(=O)Cc1ccc2c(c1)[C@]1(COC(N)=N1)c1cc(-c3cccnc3)ccc1O2` [compound 706] here?
A: Its IC50 is 0.1 to 1 µM.

Q: What about the IC50 [2] of the same compound?
A: Its IC50 is 0.1 to 1 µM.

Q: Which IC50 [1] does the source give for `CC1(C)C=C(c2cc3c(cn2)Oc2ccc(-c4cccnc4)cc2[C@@]32COC(N)=N2)CCO1` [compound 437, (5S)-3-(6,6-dimethyl-3,6-dihydro-2H-pyran-4-yl)-7-(3-pyridinyl)spiro[chromeno[2,3-c]pyridine-5,4′-[1,3]oxazol]-2′-amine] here?
A: The IC50 was under 0.1 µM.

Q: What about the IC50 ([2]; HEK cells) of the same compound?
A: The IC50 was under 0.1 µM.
